Measurements published in patent US8586103B2, “Non-polymeric compositions for controlled drug delivery” (Foresee Pharmaceuticals, LLC, priority 2008, dated 2013).
Counter-ions that a name gives are not always drawn. Each block holds one compound with its values, some of them ahead of it.

Legend:
Format in all cases: physicochemical
[1] = In vitro release of doxorubicin from SAIB/NMP formulations; conditions: for Release (%) of DOX: 24 h, PBS 7.4, 37° C., 6% DOX loading
Description: Formulations were prepared using doxorubicin-HCl (DOX-HCl) and doxorubicin docusate (DOX-DSS) complex powders. Formulations were prepared by mixing DOX-HCL and DOX-DSS with SAIB solution in NMP to achieve 6% DOX loading as shown in Table 6.
(§1) An aliquot of the suspension was used for studying the in vitro release of DOX from different formulations. About 0.1 mL of each DOX formulation was injected into 3 mL of releasing buffer (PBS 7.4, containing 0.1% sodium azide) in a 4 mL glass vial. The vials were incubated at 37° C. and sampled at various time points. At each time point, 2 mL of release medium was removed and replaced with 2 mL of fresh release medium. The collected samples were analyzed for peptide concentration and integrity by HPLC using an YMC-Pack ODS-120A column. Triplicate samples were used for each formulation.

[2] = In vitro release of leuprolide from SAIB/NMP formulations; conditions: after two weeks; PBS 7.4, 37° C.; SAIB/NMP formulation, about 6% leuprolide
Description: (§2) In another embodiment, the release rate of the compositions of the present invention was determined in vitro. About 0.1 mL of each formulation was injected into 3 mL of releasing buffer (PBS 7.4, containing 0.1% sodium azide) in a 4 mL glass vial. The vials were incubated at 37° C. and sampled at various time points. At each time point, 2 mL of release medium was removed and replaced with 2 mL of fresh release medium. The collected samples were analyzed for bioactive substance concentration and integrity by HPLC using an YMC-Pack ODS-120A column or equivalent. Triplicate samples were used for each formulation.
Formulations were prepared by mixing leuprolide acetate (LA-Ac), leuprolide dodecyl sulfate (LA-SDS), leuprolide docusate (LA-DSS) and leuprolide oleate (LA-OL) complex powders with SAIB solution in NMP (90% w/w).
as §1, with “for” for “for studying”, “release.” for “release of DOX from different formulations.”, “leuprolide” for “DOX”

[3] = Stability of the octreotide in formulations at room temperature over time (HPLC); conditions: SAIB/NMP formulation
From the text: Those peaks were not observed from the formulation at the beginning, indicating the generation of impurities or degradation products of the octreotide. The intensity of these peaks increased with the increase of time, while the peak for octreotide decreases over time. […] Therefore, this type of formulation must be modified to be suitable for controlled release delivery of various bioactive substances.
(§3) Octreotide acetate (OCT-Ac), octreotide dodecyl sulfate (OCT-SDS) and octreotide docusate (OCT-DSS) complex powders were dissolved in NMP. Then the solutions containing various salt forms of octreotide were thoroughly mixed with SAIB solution in NMP (90% w/w).
After two hours, about 4% of the octreotide was degraded or reacted.

[4] = In vitro release of octreotide from SAIB/NMP formulations; conditions: PBS 7.4, 37° C., SAIB/NMP formulation, about 6% octreotide
Description: as §2
An aliquot of the suspension was used for the in vitro release. About 0.1 mL of each formulation containing octreotide was injected into 3 mL of releasing buffer (PBS 7.4, containing 0.1% sodium azide) in a 4 mL glass vial. The vials were incubated at 37° C. and sampled at various time points. At each time point, 2 mL of release medium was removed and replaced with 2 mL of fresh release medium. The collected samples were analyzed for peptide concentration and integrity by HPLC using an YMC-Pack ODS-120A column. Triplicate samples were used for each formulation.

[5] = Appearance and phase separation of octreotide formulations in SAIB/NMP; conditions: for appearance when combined with SAIB/NMP solution: octreotide about 6%
Description: A solution of sucrose acetate isobutyrate (SAIB) in N-methyl-2-pyrrolidone (NMP) at a concentration of 80% by weight was prepared by combining 2 g NMP with 8 g SAIB followed by gentle mixing. A clear, low viscosity solution was obtained. Then 60 mg octreotide acetate was dissolved in 100 μL NMP which was combined with 900 μL SAIB solution in NMP (80%) and mixed well to obtain a formulation containing about 6% of octreotide acetate.
Since both SAIB and octreotide acetate were quite soluble in NMP, a clear solution was expected after two solutions in the same solvent (NMP) were mixed. […] Therefore, such a formulation is not suitable for preparation of a stable, single-phase formulation of octreotide in SAIB/NMP solution.
as §3
Chunky solid precipitates were observed and an inhomogeneous formulation was obtained as observed in Example 1. This inhomogeneous formulation will block needles and is not suitable for injection. […] This formulation can be prepared immediately prior to administration or suitable for storage for a period of time by adjusting the formulation parameters. […] This formulation may be packaged and stored for a long period of time at room temperature.
Octreotide acetate (OCT-Ac) and octreotide dodecyl sulfate (OCT-SDS) complex powders were dissolved in NMP. Then the solutions containing various salt forms of octreotide were thoroughly mixed with SAIB solution in NMP (90% w/w).
A chunky aggregate was formed at the bottom of the formulation (FIG. 1(a)). This inhomogeneous formulation is clearly not suitable for injection to form a consistent depot system in situ for controlled release.

[6] = In vitro release of pramipexole from SAIB formulations; conditions: PBS buffer, 37° C., about 6% PPL in 90% SAIB in NMP
Description: Formulations containing about 6% PPL of different salt forms were prepared by mixing PPL with 90% SAIB solutions in NMP. Injections of roughly 100 mg were made into vials with 3 mL PBS buffer and 0.1% NaN3. Gel-like pellets formed and the vials were placed on a shaker at 37° C. The release of PPL was measured by removing 2 mL of the release media at specified times and replacing it with 2 mL of fresh buffer. The concentration in the release media was determined by reverse phase HPLC.

[7] = Integrity of GEN-DSS SAIB/NMP pellets in PBS buffer; conditions: about 6% and 2% GEN-DSS with 90% SAIB in NMP, incubated at 37° C.
Description: Formulations containing about 6% and 2% GEN-DSS with 90% SAIB in NMP were prepared. Injections of roughly 100 mg were made into vials with 3 mL PBS buffer and 0.1% NaN3. Gel-like pellets were formed at room temperature.

[8] = Phase behaviour of lysozyme SAIB/NMP pellets in PBS buffer; conditions: about 6% with 90% SAIB in NMP, shaker at 37° C.
Description: Formulations containing about 6% LYZ and LYZ-DSS (85.2% LYZ) with 90% SAIB in NMP were prepared. Injections of roughly 100 mg were made into vials with 3 mL PBS buffer and 0.1% NaN3. Gel-like pellets were formed at room temperature and put on a shaker at 37° C. […] An improved depot system was achieved the complexation of lysozyme with amphiphilic molecule DSS.

Compound: CCCCC(CC)COC(=O)CC(C(=O)OCC(CC)CCCC)S(=O)(=O)O.COc1cccc2c1C(=O)c1c(O)c3c(c(O)c1C2=O)CC(O)(C(=O)CO)CC3OC1CC(N)C(O)C(C)O1 (centres unmarked) [DOX-DSS, doxorubicin docusate]
Release (%) of DOX [1]: Less than 8%
reduction of the initial burst release of DOX by complexation with DSS ([1]; versus DOX-HCl formulation): ~10 fold

Compound: COc1cccc2c1C(=O)c1c(O)c3c(c(O)c1C2=O)C[C@@](O)(C(=O)CO)C[C@@H]3O[C@H]1C[C@H](N)[C@H](O)[C@H](C)O1 [DOX-HCl, doxorubicin hydrochloride]
Release (%) of DOX [1]: More than 70%

Compound: CCNC(=O)[C@@H]1CCCN1C(=O)[C@H](CCCNC(=N)N)NC(=O)[C@H](CC(C)C)NC(=O)[C@@H](CC(C)C)NC(=O)[C@H](Cc1ccc(O)cc1)NC(=O)[C@H](CO)NC(=O)[C@H](Cc1c[nH]c2ccccc12)NC(=O)[C@H](Cc1c[nH]cn1)NC(=O)[C@@H]1CCC(=O)N1 [LA-Ac, leuprolide acetate]
leuprolide released [2]: almost all

Compound: C[C@@H](O)[C@@H]1NC(=O)[C@H](CCCCN)NC(=O)[C@@H](Cc2c[nH]c3ccccc23)NC(=O)[C@H](Cc2ccccc2)NC(=O)[C@@H](NC(=O)[C@H](N)Cc2ccccc2)CSSC[C@@H](C(=O)N[C@H](CO)[C@@H](C)O)NC1=O [OCT-Ac, octreotide acetate]
octreotide degraded ([3]; after 5 days): More than half
octreotide degraded or reacted ([3]; after two hours): about 4%
octreotide released ([4]; after two weeks): more than 90%
octreotide released ([4]; within 24 hours): More than 60%
appearance on mixing with SAIB solution in NMP ([5]; Example 1, about 6% octreotide acetate, SAIB solution in NMP (80%)): opaque suspension with chunky aggregates
phase separation on standing ([5]; Example 1, room temperature overnight): two distinguished phases
phase separation on standing ([5]; Example 1, room temperature, within a few hours): appearance of phase separation was observed
appearance when combined with SAIB/NMP solution ([5]; Example 7, SAIB about 70%): phase separation occurred immediately
appearance when combined with SAIB/NMP solution ([5]; Example 8, SAIB about 80%): phase separation occurred even faster

Compound: Gentamycin Docusate [GEN-DSS]
behaviour of gel-like pellets [7]: began to disintegrate and fall apart within a few hours

Compound: Lysozyme Docusate [LYZ-DSS]
phase behaviour of pellets [8]: remained one phase

Compound: lysozyme [LYZ]
phase behaviour of pellets [8]: phase separated after one day

More lines, now with the values ahead:

pramipexole released ([6]; after one week): about 90%
pramipexole released ([6]; within 24 hours): More than 60%
Compound: CCCN[C@H]1CCc2nc(N)sc2C1.Cl [PPL-HCl]

leuprolide released [2]: almost all
Compound: leuprolide oleate [LA-OL]

appearance when combined with SAIB/NMP solution ([5]; Example 7, SAIB about 70%): transparent uniform solution
Compound: octreotide docusate [OCT-DSS]

appearance when combined with SAIB/NMP solution ([5]; Example 7, SAIB about 70%): homogeneous suspension
phase separation after 24 hours ([5]; Example 8, SAIB about 80%, room temperature, 24 h): no significant phase separation
appearance when combined with SAIB/NMP solution ([5]; Example 8, SAIB about 80%): homogeneous milky suspension
Compound: octreotide dodecyl sulfate [OCT-SDS]
